Source: US20120211082A1, “PHOTOELECTRIC CONVERSION DEVICE AND SOLAR CELL USING THE SAME” (MITSUBISHI CHEMICAL CORPORATION, priority 2009, published 2012)

Experiment: Solubility in THF noted during cyclic voltammetry
Assay type: physicochemical
Conditions: cyclic voltammetry conditions
Protocol: Thus, using a mixed solvent of o-dichlorobenzene and acetonitrile (4:1, volume ratio) instead of THF, the cyclic voltammetry was performed.

Compound	Solubility in THF
c12c3c4c5c1c1c6c7c2c2c8c3c3c9c4c4c%10c5c5c1c1c6c6c%11c7c2c2c7c8c3c3c8c9c4c4c9c%10c5c5c1c1c6c6c%11c2c2c7c3c3c8c4c4c9c5c1c1c6c2c3c41 [C60, fullerene]	sparingly soluble

Experiment: Solubility of fullerene compounds in toluene
Assay type: physicochemical
Conditions: mixed at 40° C., returned to 25° C.
Protocol: With regard to the solubility of various fullerene compounds, a powder of a fullerene derivative and toluene were mixed at 40° C. The amount of toluene used at this time was a minimum amount at which dissolution was confirmed at 40° C. Thereafter, temperature was returned to 25° C. and no precipitation was confirmed. The concentration of the toluene on this occasion was regarded as the solubility. In the case where precipitation was observed, toluene was further added until dissolution, and the concentration of the toluene at the time when dissolution was finally confirmed was regarded as the solubility.

Compound	Solubility (% by weight)
c12c3c4c5c1c1c6c7c2c2c8c3c3c9c4c4c%10c5c5c1c1c6c6c%11c7c2c2c7c8c3c3c8c9c4c4c9c%10c5c5c1c1c6c6c%11c2c2c7c3c3c8c4c4c9c5c1c1c6c2c3c41 [C60, fullerene]	0.3 % by weight
1-(3-methoxycarbonyl)propyl-1-phenyl(6,6)-C60 [PCBM]	1.5 % by weight

Experiment: Solubility of buffer material in methanol at room temperature
Assay type: physicochemical
Conditions: not given

Compound	Solubility (MeOH, room temperature)/% by weight
O=P(c1ccccc1)(c1ccccc1)c1c(F)c(F)c(-c2c(F)c(F)c(P(=O)(c3ccccc3)c3ccccc3)c(F)c2F)c(F)c1F [POFBPO]	1 % by weight
Cc1cc(-c2ccccc2)c2ccc3c(-c4ccccc4)cc(C)nc3c2n1 [BCP, 2,9-dimethyl-4,7-diphenyl-1,10-phenanthroline]	0.1 % by weight
O=P(c1ccccc1)(c1ccc2ccc3cccc4ccc1c2c34)c1ccc2ccc3cccc4ccc1c2c34 [POPy2]	<0.01 % by weight
O=P(c1ccccc1)(c1ccccc1)c1cccc(-c2cc(-c3ccccc3)cc(-c3cccc(P(=O)(c4ccccc4)c4ccccc4)c3)n2)c1 [PO(TPP)PO]	>8 % by weight
c1ccc(-c2cc(-c3ccc4ccccc4c3)nc3c2ccc2c(-c4ccccc4)cc(-c4ccc5ccccc5c4)nc23)cc1 [NBPhen]	<0.01 % by weight
c1ccc(-n2c(-c3cc(-c4nc5ccccc5n4-c4ccccc4)cc(-c4nc5ccccc5n4-c4ccccc4)c3)nc3ccccc32)cc1 [TPBi]	<0.01 % by weight
O=P(c1ccccc1)(c1ccccc1)c1ccc2c(c1)C1(c3ccccc3-c3ccccc31)c1cc(P(=O)(c3ccccc3)c3ccccc3)ccc1-2 [POSFPO]	0.5 % by weight
O=P(c1ccccc1)(c1ccccc1)c1ccc2c(c1)c1cc(P(=O)(c3ccccc3)c3ccccc3)ccc1n2-c1ccccc1 [POCzPO]	>8 % by weight
O=P(c1ccccc1)(c1ccccc1)c1ccc2ccccc2c1-c1c(P(=O)(c2ccccc2)c2ccccc2)ccc2ccccc12 [BINAPO]	4 % by weight
O=P(c1ccccc1)(c1ccccc1)c1ccccc1 [POPh3]	>5.0 % by weight
